According to patent publication US20190365730A1, “ANAESTHETIC COMPOSITION COMPRISING ROPIVACAINE, PRILOCAINE AND LIDOCAINE” (priority 2017, published 2019):

How the values were obtained:
[1] = animal models, compared with bupivacaine; cited from earlier work
[2] = relative to lidocaine; cited from earlier work
[3] = tested on: intact skin of the lower arm; test: Pinprick test of anesthesis after topical application to intact skin of the lower arm; assay type: in vivo
Description: The pharmaceutical compositions were topically administered to intact skin of the arm and tested for anesthesis by pinpricks to a treated area of the skin. The sensation of pain was recorded for every puncture of the skin by the pin. […] The compositions were applied to intact skin of the lower arm in a circle area of a diameter of 1-2 cm. The amount of the composition applied to the skin was kept constant and left on the skin during the study. The treated area of intact skin was subjected to repeated pinpricks and the sensation of pain was recorded.

[4] = compared with prilocaine, lidocaine or ropivacaine; cited from earlier work

| Structure (SMILES) | cardiotoxicity [1] | duration time of anesthesis compared to lidocaine [2] | duration of effect (effect lasted) [3] | onset of anesthesis [3] | toxicity [4] |
| --- | --- | --- | --- | --- | --- |
| CCCN1CCCC[C@H]1C(=O)Nc1c(C)cccc1C.Cl.O [Ropivacaine, (S)-N-(2,6-dimethylphenyl)-1-propylpiperidine-2-carboxamide hydrochloride monohydrate] | less cardiotoxicity than bupivacaine | about two | 3 h | approximately 1 hour | – |
| CCCCN1CCCCC1C(=O)Nc1c(C)cccc1C (centres unmarked) [bupivacaine, 1-Butyl-N-(2,6-dimethylphenyl)-2-piperidinecarboxamide] | – | – | – | – | more toxic than prilocaine, lidocaine or ropivacaine |
